# Data as given in article PMC11579512, “Deoxybouvardin-glucoside induces apoptosis in non-small cell lung cancer cells by targeting EGFR/MET and AKT signaling pathway” (EXCLI Journal, 2024).
# Experiments:
# AKT2 = molecular target: T1, AKT2 (Homo sapiens, UniProt P31751); assay: In vitro ADP-Glo kinase assay, AKT2; format: biochemical
# T1 construct: purchased Promega
# Procedure: Subsequently, each well was added with ADP-Glo reagent and incubated for another 40 min. After completion of the kinase reaction, each well was added with kinase activity detection reagent and then incubated for 30 min. Liquid was dispensed with I.DOT (Dispendix, Stuttgart, Germany). Luminescence was measured on a Centro LB 960 microplate luminometer (Berthold Technologies).
# HCC827 cells [1] = assay: Intracellular ROS (Muse Oxidative Stress Kit), HCC827; format: cell-based, human; conditions: 48 h, control 7.32 %
# Procedure: (§1) HaCaT cells were grown in DMEM, whereas HCC827 and HCC827GR cells were grown in RPMI 1640. All culture media were supplemented with FBS (10 %) and P/S (1 %), and the cells were grown at 37 °C in 5 % CO2.
# The levels of intracellular ROS were measured using a Muse™ Oxidative Stress Kit (MCH100111, Merck Millipore) in accordance with the manufacturer's instructions. The cells were incubated with a Muse™ Oxidative Stress Reagent working solution in the dark at 37 °C for 30 min. Intracellular ROS generation was measured using a Muse™ Cell Analyzer.
# PARP = assay: Immunoblot PARP with NAC pretreatment, HCC827 and HCC827GR cells; format: cell-based, human; conditions: for PARP protein Ratio: control = 1.00
# Procedure: as §1
# (§2) Cells were lysed in RIPA buffer, and protein concentration was determined using a Bio-Rad DC Protein Assay kit (Bio-Rad, Hercules, CA, USA). Protein samples from the cell lysates were resolved by sodium dodecyl sulfate-polyacrylamide gel electrophoresis and then transferred onto polyvinylidene fluoride membranes. The membranes were blocked with 3 % or 5 % skim milk and then incubated at 4 °C overnight with the indicated primary antibodies, followed by the corresponding horseradish peroxidase-conjugated secondary antibodies at RT for 2 h. Protein bands were visualized using western blotting luminol reagent solution and ImageQuant LAS 500 (GE Healthcare, Uppsala, Sweden). The density of the bands was quantified using ImageJ software (NIH, Bethesda, MD, USA).
# Bad = assay: Immunoblot Bad in HCC827 and HCC827GR cells; format: cell-based, human
# Procedure: as §1, §2
# caspase-3 = assay: Immunoblot caspase-3 in HCC827 and HCC827GR cells; format: cell-based, human; conditions: for caspase3 protein Ratio: DBG 0 nM = 1.00
# Procedure: as §1, §2
# HCC827 cells [2] = assay: Annexin V/7-AAD apoptosis, HCC827; format: cell-based, human; design: Early apoptosis / Total apopt / Dead / Live: unit not given here; conditions: for apoptotic cells (annexin V+): 48 h, background 4.78 %; for Dead / Early apoptosis / Late apoptosis/Dead / Total apopt / Live: HCC827
# Procedure: as §1
# Apoptosis was measured using a Muse™ Annexin V & Dead Cell Kit (MCH100105, Merck Millipore). The fluorescent signal was analyzed with a Muse™ Cell Analyzer.
# T1 sequence (P31751 whole entry): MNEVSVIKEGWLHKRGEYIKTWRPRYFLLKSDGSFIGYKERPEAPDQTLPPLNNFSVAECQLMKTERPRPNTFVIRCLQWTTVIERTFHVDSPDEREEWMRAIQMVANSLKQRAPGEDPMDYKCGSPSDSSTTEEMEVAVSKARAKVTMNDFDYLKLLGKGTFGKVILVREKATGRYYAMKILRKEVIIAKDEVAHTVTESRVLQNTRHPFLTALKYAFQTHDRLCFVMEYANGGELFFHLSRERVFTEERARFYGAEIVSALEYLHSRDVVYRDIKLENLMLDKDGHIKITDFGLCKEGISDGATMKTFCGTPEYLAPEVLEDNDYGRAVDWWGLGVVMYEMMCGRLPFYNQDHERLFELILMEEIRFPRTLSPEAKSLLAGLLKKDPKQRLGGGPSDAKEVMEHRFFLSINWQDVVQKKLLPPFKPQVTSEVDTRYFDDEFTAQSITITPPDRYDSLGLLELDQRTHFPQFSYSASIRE
compound,measurement,setting,value
"COc1ccc(C[C@H]2C(=O)N[C@@H](C)C(=O)N(C)[C@H]3Cc4ccc(cc4)Oc4cc(ccc4O[C@@H]4O[C@H](CO)[C@@H](O)[C@H](O)[C@H]4O)C[C@@H](C(=O)N[C@H](C)C(=O)N[C@@H](C)C(=O)N2C)N(C)C3=O)cc1 [DBG, deoxybouvardin glucoside]",IC50,"AKT2; ADP-Glo, AKT2 5 ng, RT, 60 min, luminescence, n=3",11.2 nM
same,"kinase activity, in words","AKT2; DBG 3, 6, 12 nM",significantly inhibited
same,ROS level,HCC827 cells [1]; DBG 3 nM,18.40%
same,ROS level,HCC827 cells [1]; DBG 6 nM,47.32%
same,ROS level,HCC827 cells [1]; DBG 12 nM,70.22%
same,PARP protein/actin,"PARP; HCC827, DBG 12 nM, control 0.96",0.09
same,PARP protein Ratio,"PARP; HCC827, DBG 12 nM",0.09
same,PARP protein/actin,"PARP; HCC827, NAC 4 mM + DBG 12 nM, control 0.96",1.09
same,PARP protein Ratio,"PARP; HCC827, NAC 4 mM + DBG 12 nM",1.14
same,PARP protein/actin,"PARP; HCC827GR, DBG 12 nM, control 0.99",0.21
same,PARP protein Ratio,"PARP; HCC827GR, DBG 12 nM",0.22
same,PARP protein/actin,"PARP; HCC827GR, NAC 4 mM + DBG 12 nM, control 0.99",0.81
same,PARP protein Ratio,"PARP; HCC827GR, NAC 4 mM + DBG 12 nM",0.82
same,Bad protein/actin,"Bad; HCC827, DBG 3 nM, DBG 0 nM 0.16",0.25
same,Bad protein Ratio,"Bad; HCC827, DBG 3 nM, relative to DBG 12 nM = 1.00, DBG 0 nM 0.19",0.31
same,Bad protein/actin,"Bad; HCC827, DBG 6 nM, DBG 0 nM 0.16",0.69
same,Bad protein Ratio,"Bad; HCC827, DBG 6 nM, relative to DBG 12 nM = 1.00, DBG 0 nM 0.19",0.84
same,Bad protein Ratio,"Bad; HCC827, DBG 12 nM (reference of the ratio, 1.00), DBG 0 nM 0.19",1.00
same,Bad protein/actin,"Bad; HCC827, DBG 12 nM, DBG 0 nM 0.16",0.82
same,Bad protein/actin,"Bad; HCC827GR, DBG 3 nM, DBG 0 nM 0.28",0.22
same,Bad protein Ratio,"Bad; HCC827GR, DBG 3 nM, relative to DBG 12 nM = 1.00, DBG 0 nM 0.49",0.39
same,Bad protein/actin,"Bad; HCC827GR, DBG 6 nM, DBG 0 nM 0.28",0.59
same,Bad protein Ratio,"Bad; HCC827GR, DBG 6 nM, relative to DBG 12 nM = 1.00, DBG 0 nM 0.49",1.03
same,Bad protein Ratio,"Bad; HCC827GR, DBG 12 nM (reference of the ratio, 1.00), DBG 0 nM 0.49",1.00
same,Bad protein/actin,"Bad; HCC827GR, DBG 12 nM, DBG 0 nM 0.28",0.57
same,level of Bad,"Bad; NSCLC cells, DBG",increased
same,caspase3 protein/actin,"caspase-3; HCC827, DBG 3 nM, DBG 0 nM 0.88",0.62
same,caspase3 protein Ratio,"caspase-3; HCC827, DBG 3 nM",0.71
same,caspase3 protein/actin,"caspase-3; HCC827, DBG 6 nM, DBG 0 nM 0.88",0.55
same,caspase3 protein Ratio,"caspase-3; HCC827, DBG 6 nM",0.62
same,caspase3 protein/actin,"caspase-3; HCC827, DBG 12 nM, DBG 0 nM 0.88",0.14
same,caspase3 protein Ratio,"caspase-3; HCC827, DBG 12 nM",0.16
same,caspase3 protein/actin,"caspase-3; HCC827GR, DBG 3 nM, DBG 0 nM 0.55",0.60
same,caspase3 protein Ratio,"caspase-3; HCC827GR, DBG 3 nM",1.11
same,caspase3 protein/actin,"caspase-3; HCC827GR, DBG 6 nM, DBG 0 nM 0.55",0.48
same,caspase3 protein Ratio,"caspase-3; HCC827GR, DBG 6 nM",0.87
same,caspase3 protein/actin,"caspase-3; HCC827GR, DBG 12 nM, DBG 0 nM 0.55",0.30
same,caspase3 protein Ratio,"caspase-3; HCC827GR, DBG 12 nM",0.54
same,level of whole caspase-3,"caspase-3; HCC827 and HCC827GR, DBG",decreased
same,apoptotic cells (annexin V+),HCC827 cells [2]; DBG 3 nM,9.60%
same,apoptotic cells (annexin V+),HCC827 cells [2]; DBG 6 nM,15.30%
same,apoptotic cells (annexin V+),HCC827 cells [2]; DBG 12 nM,44.90%
same,Dead,"HCC827 cells [2]; DBG 3 nM, mean of 3 samples, untreated 1.21",1.72
same,Early apoptosis,"HCC827 cells [2]; DBG 3 nM, mean of 3 samples, untreated 1.30",3.33
same,Late apoptosis/Dead,"HCC827 cells [2]; DBG 3 nM, mean of 3 samples, untreated 3.48",6.27
same,Total apopt,"HCC827 cells [2]; DBG 3 nM, mean of 3 samples, untreated 4.78",9.60
same,Live,"HCC827 cells [2]; DBG 3 nM, mean of 3 samples, untreated 94.01",88.68
same,Dead,"HCC827 cells [2]; DBG 3 nM, replicate 1",1.90
same,Early apoptosis,"HCC827 cells [2]; DBG 3 nM, replicate 1",3.35
same,Late apoptosis/Dead,"HCC827 cells [2]; DBG 3 nM, replicate 1",5.90
same,Live,"HCC827 cells [2]; DBG 3 nM, replicate 1",88.85
same,Total apopt,"HCC827 cells [2]; DBG 3 nM, replicate 1",9.25
same,Dead,"HCC827 cells [2]; DBG 3 nM, replicate 2",1.75
same,Early apoptosis,"HCC827 cells [2]; DBG 3 nM, replicate 2",3.40
same,Late apoptosis/Dead,"HCC827 cells [2]; DBG 3 nM, replicate 2",5.90
same,Live,"HCC827 cells [2]; DBG 3 nM, replicate 2",88.95
same,Total apopt,"HCC827 cells [2]; DBG 3 nM, replicate 2",9.30
same,Dead,"HCC827 cells [2]; DBG 3 nM, replicate 3",1.50
same,Early apoptosis,"HCC827 cells [2]; DBG 3 nM, replicate 3",3.25
same,Late apoptosis/Dead,"HCC827 cells [2]; DBG 3 nM, replicate 3",7.00
same,Live,"HCC827 cells [2]; DBG 3 nM, replicate 3",88.25
same,Total apopt,"HCC827 cells [2]; DBG 3 nM, replicate 3",10.25
same,Dead,"HCC827 cells [2]; DBG 6 nM, mean of 3 samples, untreated 1.21",1.75
same,Early apoptosis,"HCC827 cells [2]; DBG 6 nM, mean of 3 samples, untreated 1.30",6.37
same,Late apoptosis/Dead,"HCC827 cells [2]; DBG 6 nM, mean of 3 samples, untreated 3.48",8.93
same,Total apopt,"HCC827 cells [2]; DBG 6 nM, mean of 3 samples, untreated 4.78",15.30
same,Live,"HCC827 cells [2]; DBG 6 nM, mean of 3 samples, untreated 94.01",82.95
same,Dead,"HCC827 cells [2]; DBG 6 nM, replicate 1",1.70
same,Early apoptosis,"HCC827 cells [2]; DBG 6 nM, replicate 1",6.40
same,Late apoptosis/Dead,"HCC827 cells [2]; DBG 6 nM, replicate 1",9.25
same,Live,"HCC827 cells [2]; DBG 6 nM, replicate 1",82.65
same,Total apopt,"HCC827 cells [2]; DBG 6 nM, replicate 1",15.65
same,Dead,"HCC827 cells [2]; DBG 6 nM, replicate 2",1.90
same,Early apoptosis,"HCC827 cells [2]; DBG 6 nM, replicate 2",6.75
same,Late apoptosis/Dead,"HCC827 cells [2]; DBG 6 nM, replicate 2",8.15
same,Live,"HCC827 cells [2]; DBG 6 nM, replicate 2",83.20
same,Total apopt,"HCC827 cells [2]; DBG 6 nM, replicate 2",14.90
same,Dead,"HCC827 cells [2]; DBG 6 nM, replicate 3",1.65
same,Early apoptosis,"HCC827 cells [2]; DBG 6 nM, replicate 3",5.95
same,Late apoptosis/Dead,"HCC827 cells [2]; DBG 6 nM, replicate 3",9.40
same,Live,"HCC827 cells [2]; DBG 6 nM, replicate 3",83.00
same,Total apopt,"HCC827 cells [2]; DBG 6 nM, replicate 3",15.35
same,Dead,"HCC827 cells [2]; DBG 12 nM, mean of 3 samples, untreated 1.21",4.72
same,Early apoptosis,"HCC827 cells [2]; DBG 12 nM, mean of 3 samples, untreated 1.30",19.42
same,Late apoptosis/Dead,"HCC827 cells [2]; DBG 12 nM, mean of 3 samples, untreated 3.48",25.48
same,Total apopt,"HCC827 cells [2]; DBG 12 nM, mean of 3 samples, untreated 4.78",44.90
same,Live,"HCC827 cells [2]; DBG 12 nM, mean of 3 samples, untreated 94.01",50.38
same,Dead,"HCC827 cells [2]; DBG 12 nM, replicate 1",4.65
same,Early apoptosis,"HCC827 cells [2]; DBG 12 nM, replicate 1",19.00
same,Late apoptosis/Dead,"HCC827 cells [2]; DBG 12 nM, replicate 1",25.05
same,Live,"HCC827 cells [2]; DBG 12 nM, replicate 1",51.30
same,Total apopt,"HCC827 cells [2]; DBG 12 nM, replicate 1",44.05
same,Dead,"HCC827 cells [2]; DBG 12 nM, replicate 2",4.15
same,Early apoptosis,"HCC827 cells [2]; DBG 12 nM, replicate 2",19.25
same,Late apoptosis/Dead,"HCC827 cells [2]; DBG 12 nM, replicate 2",25.30
same,Live,"HCC827 cells [2]; DBG 12 nM, replicate 2",51.30
same,Total apopt,"HCC827 cells [2]; DBG 12 nM, replicate 2",44.55
same,Dead,"HCC827 cells [2]; DBG 12 nM, replicate 3",5.35
same,Early apoptosis,"HCC827 cells [2]; DBG 12 nM, replicate 3",20.00
same,Late apoptosis/Dead,"HCC827 cells [2]; DBG 12 nM, replicate 3",26.10
same,Live,"HCC827 cells [2]; DBG 12 nM, replicate 3",48.55
same,Total apopt,"HCC827 cells [2]; DBG 12 nM, replicate 3",46.10
